Laboratory results published in US10464947B2 (Incyte Corporation, priority 2013, dated 2019).
Structures can show the parent of a compound that is named as a salt.

test system: KMS.12.BM cells; assay: KMS.12.BM Cell Viability Assay (Example B1); assay type: cell-based, human; settings: Homo sapiens, 72 h, 3 days, Cell Titer-GLO, read-out: KMS cellular IC50
Summary of the method: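 KMS.12.BM human myeloma cells, 5000 cells/well in RPMI with 10% FBS, exposed to a compound concentration range for 3 days. Viable cells measured by ATP-based Cell Titer-GLO luminescence after 10 min at room temperature.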

| SMILES | IC50 [nM] |
| --- | --- |
| CC(=O)N(C)[C@@H]1CCN(c2nc3ccc(-c4c(C)noc4C)c4c3n2[C@@H](c2ccccn2)CO4)C1 [Example 222, N-{(3R)-1-[(4S)-7-(3,5-dimethylisoxazol-4-yl)-4-pyridin-2-yl-4,5-dihydroimidazo[1,5,4-de][1,4]benzoxazin-2-yl]pyrrolidin-3-yl}-N-methylacetamide] | < 1000 |
| CC(=O)N1CCN(c2nc3ccc(-c4c(C)noc4C)c4c3n2[C@@H](c2ccccn2)CO4)CC1 [Example 224, (4S)-2-(4-acetylpiperazin-1-yl)-7-(3,5-dimethylisoxazol-4-yl)-4-pyridin-2-yl-4,5-dihydroimidazo[1,5,4-de][1,4]benzoxazine] | < 1000 |
| CCC(=O)N1CCN(c2nc3ccc(-c4c(C)noc4C)c4c3n2[C@@H](c2ccccn2)CO4)CC1 [Example 225, (4S)-7-(3,5-dimethylisoxazol-4-yl)-2-(4-propionylpiperazin-1-yl)-4-pyridin-2-yl-4,5-dihydroimidazo[1,5,4-de][1,4]benzoxazine] | < 1000 |
| CCS(=O)(=O)N1CCN(c2nc3ccc(-c4c(C)noc4C)c4c3n2[C@@H](c2ccccn2)CO4)CC1 [Example 226, (4S)-7-(3,5-dimethylisoxazol-4-yl)-2-[4-(ethylsulfonyl)piperazin-1-yl]-4-pyridin-2-yl-4,5-dihydroimidazo[1,5,4-de][1,4]benzoxazine] | < 1000 |
| Cc1noc(C)c1-c1ccc2nc(N3CCN(CC(=O)N4CCCC4)CC3)n3c2c1OC[C@@H]3c1ccccn1 [Example 228, (4S)-7-(3,5-dimethylisoxazol-4-yl)-2-[4-(2-oxo-2-pyrrolidin-1-ylethyl)piperazin-1-yl]-4-pyridin-2-yl-4,5-dihydroimidazo[1,5,4-de][1,4]benzoxazine] | < 1000 |
| Cc1noc(C)c1-c1ccc2nc(N3CCN(S(N)(=O)=O)CC3)n3c2c1OC[C@@H]3c1ccccn1 [Example 229, 4-[(4S)-7-(3,5-dimethylisoxazol-4-yl)-4-pyridin-2-yl-4,5-dihydroimidazo[1,5,4-de][1,4]benzoxazin-2-yl]piperazine-1-sulfonamide] | < 1000 |
| Cc1noc(C)c1-c1ccc2nc(N3CC(N)C3)n3c2c1OC[C@@H]3c1ccccn1 [Example 230, 1-[(4S)-7-(3,5-dimethylisoxazol-4-yl)-4-pyridin-2-yl-4,5-dihydroimidazo[1,5,4-de][1,4]benzoxazin-2-yl]azetidin-3-amine trihydrochloride] | < 1000 |
| CC(=O)NC1CN(c2nc3ccc(-c4c(C)noc4C)c4c3n2[C@@H](c2ccccn2)CO4)C1 [Example 231, N-{1-[(4S)-7-(3,5-dimethylisoxazol-4-yl)-4-pyridin-2-yl-4,5-dihydroimidazo[1,5,4-de][1,4]benzoxazin-2-yl]azetidin-3-yl}acetamide] | < 1000 |
| CCC(=O)NC1CN(c2nc3ccc(-c4c(C)noc4C)c4c3n2[C@@H](c2ccccn2)CO4)C1 [Example 232, N-{1-[(4S)-7-(3,5-dimethylisoxazol-4-yl)-4-pyridin-2-yl-4,5-dihydroimidazo[1,5,4-de][1,4]benzoxazin-2-yl]azetidin-3-yl}propanamide] | < 1000 |
| Cc1noc(C)c1-c1ccc2nc(N3CC(NC(=O)C(C)C)C3)n3c2c1OC[C@@H]3c1ccccn1 [Example 233, N-{1-[(4S)-7-(3,5-dimethylisoxazol-4-yl)-4-pyridin-2-yl-4,5-dihydroimidazo[1,5,4-de][1,4]benzoxazin-2-yl]azetidin-3-yl}-2-methylpropanamide] | < 1000 |
| COCC(=O)NC1CN(c2nc3ccc(-c4c(C)noc4C)c4c3n2[C@@H](c2ccccn2)CO4)C1 [Example 234, N-{1-[(4S)-7-(3,5-dimethylisoxazol-4-yl)-4-pyridin-2-yl-4,5-dihydroimidazo[1,5,4-de][1,4]benzoxazin-2-yl]azetidin-3-yl}-2-methoxyacetamide] | < 1000 |
| Cc1noc(C)c1-c1ccc2nc(N3CC(NC(=O)C4CC4)C3)n3c2c1OC[C@@H]3c1ccccn1 [Example 235, N-{1-[(4S)-7-(3,5-dimethylisoxazol-4-yl)-4-pyridin-2-yl-4,5-dihydroimidazo[1,5,4-de][1,4]benzoxazin-2-yl]azetidin-3-yl}cyclopropanecarboxamide] | < 1000 |
| Cc1noc(C)c1-c1ccc2nc(N3CC(NC(=O)C4CCC4)C3)n3c2c1OC[C@@H]3c1ccccn1 [Example 236, N-{1-[(4S)-7-(3,5-dimethylisoxazol-4-yl)-4-pyridin-2-yl-4,5-dihydroimidazo[1,5,4-de][1,4]benzoxazin-2-yl]azetidin-3-yl}cyclobutanecarboxamide] | < 1000 |
| Cc1noc(C)c1-c1ccc2nc(N3CC(NS(C)(=O)=O)C3)n3c2c1OC[C@@H]3c1ccccn1 [Example 237, N-{1-[(4S)-7-(3,5-dimethylisoxazol-4-yl)-4-pyridin-2-yl-4,5-dihydroimidazo[1,5,4-de][1,4]benzoxazin-2-yl]azetidin-3-yl}methanesulfonamide] | < 1000 |
| CCS(=O)(=O)NC1CN(c2nc3ccc(-c4c(C)noc4C)c4c3n2[C@@H](c2ccccn2)CO4)C1 [Example 238, N-{1-[(4S)-7-(3,5-dimethylisoxazol-4-yl)-4-pyridin-2-yl-4,5-dihydroimidazo[1,5,4-de][1,4]benzoxazin-2-yl]azetidin-3-yl}ethanesulfonamide] | < 1000 |
| Cc1noc(C)c1-c1ccc2nc(N3CC(NS(=O)(=O)C(C)C)C3)n3c2c1OC[C@@H]3c1ccccn1 [Example 239, N-{1-[(4S)-7-(3,5-dimethylisoxazol-4-yl)-4-pyridin-2-yl-4,5-dihydroimidazo[1,5,4-de][1,4]benzoxazin-2-yl]azetidin-3-yl}propane-2-sulfonamide] | < 1000 |
| Cc1noc(C)c1-c1ccc2nc(N3CCC(NS(C)(=O)=O)CC3)n3c2c1OC[C@@H]3c1ccccn1 [Example 240, N-{1-[(4S)-7-(3,5-dimethylisoxazol-4-yl)-4-pyridin-2-yl-4,5-dihydroimidazo[1,5,4-de][1,4]benzoxazin-2-yl]piperidin-4-yl}methanesulfonamide] | < 1000 |
| COCC(=O)NC1CCN(c2nc3ccc(-c4c(C)noc4C)c4c3n2[C@@H](c2ccccn2)CO4)CC1 [Example 241, N-{1-[(4S)-7-(3,5-dimethylisoxazol-4-yl)-4-pyridin-2-yl-4,5-dihydroimidazo[1,5,4-de][1,4]benzoxazin-2-yl]piperidin-4-yl}-2-methoxyacetamide] | < 1000 |
| Cc1noc(C)c1-c1ccc2nc(N3CCC(NC(=O)C(F)(F)F)CC3)n3c2c1OC[C@@H]3c1ccccn1 [Example 242, N-{1-[(4S)-7-(3,5-dimethylisoxazol-4-yl)-4-pyridin-2-yl-4,5-dihydroimidazo[1,5,4-de][1,4]benzoxazin-2-yl]piperidin-4-yl}-2,2,2-trifluoroacetamide] | < 1000 |
| CCC(=O)NC1CCN(c2nc3ccc(-c4c(C)noc4C)c4c3n2[C@@H](c2ccccn2)CO4)CC1 [Example 243, N-{1-[(4S)-7-(3,5-dimethylisoxazol-4-yl)-4-pyridin-2-yl-4,5-dihydroimidazo[1,5,4-de][1,4]benzoxazin-2-yl]piperidin-4-yl}propanamide] | < 1000 |
| Cc1noc(C)c1-c1ccc2nc(N3CCC(NC(=O)C(C)C)CC3)n3c2c1OCC3c1ccccn1 (centres unmarked) [Example 244] | < 1000 |
| CCC(=O)N1CCCN(c2nc3ccc(-c4c(C)noc4C)c4c3n2[C@@H](c2ccccn2)CO4)CC1 [Example 246, (4S)-7-(3,5-dimethylisoxazol-4-yl)-2-(4-propionyl-1,4-diazepan-1-yl)-4-pyridin-2-yl-4,5-dihydroimidazo[1,5,4-de][1,4]benzoxazine] | < 1000 |
| CCS(=O)(=O)N1CCCN(c2nc3ccc(-c4c(C)noc4C)c4c3n2[C@@H](c2ccccn2)CO4)CC1 [Example 248, (4S)-7-(3,5-dimethylisoxazol-4-yl)-2-[4-(ethylsulfonyl)-1,4-diazepan-1-yl]-4-pyridin-2-yl-4,5-dihydroimidazo[1,5,4-de][1,4]benzoxazine] | < 1000 |
| CNC(=O)[C@@H]1CCN(c2nc3ccc(-c4c(C)noc4C)c4c3n2[C@@H](c2ccccn2)CO4)C1 [Example 249, (3R)-1-[(4S)-7-(3,5-dimethylisoxazol-4-yl)-4-pyridin-2-yl-4,5-dihydroimidazo[1,5,4-de][1,4]benzoxazin-2-yl]-N-methylpyrrolidine-3-carboxamide] | < 1000 |
| CCNC(=O)[C@@H]1CCN(c2nc3ccc(-c4c(C)noc4C)c4c3n2[C@@H](c2ccccn2)CO4)C1 [Example 250, (3R)-1-[(4S)-7-(3,5-dimethylisoxazol-4-yl)-4-pyridin-2-yl-4,5-dihydroimidazo[1,5,4-de][1,4]benzoxazin-2-yl]-N-ethylpyrrolidine-3-carboxamide] | < 1000 |
| Cc1noc(C)c1-c1ccc2nc(N3CC[C@@H](C(=O)NC4CC4)C3)n3c2c1OC[C@@H]3c1ccccn1 [Example 251, (3R)-N-cyclopropyl-1-[(4S)-7-(3,5-dimethylisoxazol-4-yl)-4-pyridin-2-yl-4,5-dihydroimidazo[1,5,4-de][1,4]benzoxazin-2-yl]pyrrolidine-3-carboxamide] | < 1000 |
| Cc1noc(C)c1-c1cc(CNC(C)C)c2[nH]c(=O)n3c2c1OCC3c1ccccn1 (centres unmarked) [Example 253, 7-(3,5-Dimethylisoxazol-4-yl)-9-[(isopropylamino)methyl]-4-pyridin-2-yl-4,5-dihydroimidazo[1,5,4-de][1,4]benzoxazin-2(1H)-one] | 1000 to 10000 |
| Cc1noc(C)c1-c1cc(CO)c2[nH]c(=O)n3c2c1OCC3c1ccccn1 (centres unmarked) [Example 254, 7-(3,5-Dimethylisoxazol-4-yl)-9-(hydroxymethyl)-4-pyridin-2-yl-4,5-dihydroimidazo[1,5,4-de][1,4]benzoxazin-2(1H)-one] | < 1000 |
| Cc1noc(C)c1-c1ccc2[nH]c(=S)n3c2c1OCC3c1ccccn1 (centres unmarked) [Example 255, 7-(3,5-Dimethylisoxazol-4-yl)-4-pyridin-2-yl-4,5-dihydroimidazo[1,5,4-de][1,4]benzoxazine-2(1H)-thione] | < 1000 |
